Data reported in article PMC9025901, “New Genetic Bomb Trigger: Design, Synthesis, Molecular Dynamics Simulation, and Biological Evaluation of Novel BIBR1532-Related Analogs Targeting Telomerase against Non-Small Cell Lung Cancer” (Pharmaceuticals, 2022).

Key:
[1] = test system: advanced non-small cell lung cancer; parameters: method as in PMID 32733068, PMID 25467017; settings: phase II clinical trials, patients with advanced non-small cell lung cancer; cited from earlier work
telomerase = target: T1, telomerase (Homo sapiens, UniProt O14746); assay: TRAP / RTQ-TRAP telomerase activity assay in A549 cell-free lysates; assay type: biochemical; settings: telomerase inhibition, mean ± SEM;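 note: telomerase activity measured in cell-free extracts of human A549 epithelial lung carcinoma cells, tested across a range of inhibitor concentrations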
T1 construct: A549 cells (human epithelial cell lung carcinoma, ATCC, Manassas, VA) were lysed in; host or cells: A549 cell lysate (CHAPS extract, 5 µg total protein)

[2] = target: T2, telomerase inside living cancer cells A549 (Homo sapiens, UniProt O14746); assay: Living-cell TRAP assay, A549; assay type: cell-based; settings: percent of control cells, 10 µM, 48 h
T2 construct: host or cells: A549

[3] = target: T3, telomerase inside living cancer cells HCC44 (Homo sapiens, UniProt O14746); assay: Living-cell TRAP assay, HCC44; assay type: cell-based; settings: percent of control cells, 10 µM, 48 h
T3 construct: host or cells: HCC44

[4] = target: T4, telomerase inside living cancer cells NCI-H23 (Homo sapiens, UniProt O14746); assay: Living-cell TRAP assay, NCI-H23; assay type: cell-based; settings: percent of control cells, 10 µM, 48 h
T4 construct: host or cells: NCI-H23

[5] = parameters: method as in PMID 18256617, PMID 32733068, PMID 32125789; settings: cited from earlier work

T1 sequence (O14746 whole entry): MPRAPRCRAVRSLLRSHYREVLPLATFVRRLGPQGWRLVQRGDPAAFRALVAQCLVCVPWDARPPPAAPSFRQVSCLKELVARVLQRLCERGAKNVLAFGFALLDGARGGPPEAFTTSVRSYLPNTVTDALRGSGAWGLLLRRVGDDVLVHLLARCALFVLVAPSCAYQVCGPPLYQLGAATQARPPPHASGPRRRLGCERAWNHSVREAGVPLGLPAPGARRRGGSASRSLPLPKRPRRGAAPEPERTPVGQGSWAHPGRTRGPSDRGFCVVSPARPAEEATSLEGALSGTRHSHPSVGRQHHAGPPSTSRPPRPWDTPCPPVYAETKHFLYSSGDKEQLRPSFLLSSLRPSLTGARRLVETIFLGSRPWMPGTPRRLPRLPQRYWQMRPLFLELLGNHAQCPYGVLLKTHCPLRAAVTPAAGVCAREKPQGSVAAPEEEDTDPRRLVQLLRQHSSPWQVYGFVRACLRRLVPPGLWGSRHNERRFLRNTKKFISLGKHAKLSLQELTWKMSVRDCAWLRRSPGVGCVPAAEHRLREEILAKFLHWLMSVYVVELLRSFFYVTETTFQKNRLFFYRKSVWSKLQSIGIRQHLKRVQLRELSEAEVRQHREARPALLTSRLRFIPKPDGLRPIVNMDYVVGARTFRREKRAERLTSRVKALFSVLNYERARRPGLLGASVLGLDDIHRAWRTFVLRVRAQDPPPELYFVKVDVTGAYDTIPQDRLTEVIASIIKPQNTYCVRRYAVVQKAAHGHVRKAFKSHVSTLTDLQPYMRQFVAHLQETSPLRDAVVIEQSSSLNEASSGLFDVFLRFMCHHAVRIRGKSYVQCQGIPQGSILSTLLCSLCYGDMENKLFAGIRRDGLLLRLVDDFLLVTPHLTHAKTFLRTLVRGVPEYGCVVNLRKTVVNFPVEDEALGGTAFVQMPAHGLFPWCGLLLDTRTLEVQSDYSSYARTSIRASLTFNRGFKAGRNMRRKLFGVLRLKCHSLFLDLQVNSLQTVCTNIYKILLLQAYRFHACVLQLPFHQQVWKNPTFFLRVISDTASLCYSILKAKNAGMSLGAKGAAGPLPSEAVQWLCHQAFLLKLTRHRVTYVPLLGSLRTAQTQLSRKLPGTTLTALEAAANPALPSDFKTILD
T1 sequence (O60832 whole entry partner): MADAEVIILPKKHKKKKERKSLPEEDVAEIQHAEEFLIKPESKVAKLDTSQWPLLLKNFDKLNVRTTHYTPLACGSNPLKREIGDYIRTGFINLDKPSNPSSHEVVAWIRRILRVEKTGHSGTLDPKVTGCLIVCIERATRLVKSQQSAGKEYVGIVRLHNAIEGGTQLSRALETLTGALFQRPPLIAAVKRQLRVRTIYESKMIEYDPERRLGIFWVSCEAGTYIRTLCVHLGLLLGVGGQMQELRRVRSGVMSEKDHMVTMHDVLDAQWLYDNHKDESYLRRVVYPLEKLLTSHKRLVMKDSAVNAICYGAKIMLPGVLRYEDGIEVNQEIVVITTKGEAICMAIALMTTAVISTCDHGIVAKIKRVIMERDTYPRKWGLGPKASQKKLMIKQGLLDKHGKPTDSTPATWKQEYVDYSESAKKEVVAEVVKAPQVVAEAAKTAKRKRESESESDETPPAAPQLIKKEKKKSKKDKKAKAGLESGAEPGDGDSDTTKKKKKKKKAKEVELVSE
T1 sequence (Q9NX24 whole entry partner): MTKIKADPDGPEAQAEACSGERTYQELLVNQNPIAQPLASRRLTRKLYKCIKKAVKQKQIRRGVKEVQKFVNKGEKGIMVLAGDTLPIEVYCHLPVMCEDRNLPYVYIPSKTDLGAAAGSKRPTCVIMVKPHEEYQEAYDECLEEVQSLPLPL
T1 sequence (Q9NPE3 whole entry partner): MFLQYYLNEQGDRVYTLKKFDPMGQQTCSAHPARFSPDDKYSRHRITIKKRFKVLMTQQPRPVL
T1 sequence (Q9NY12 whole entry partner): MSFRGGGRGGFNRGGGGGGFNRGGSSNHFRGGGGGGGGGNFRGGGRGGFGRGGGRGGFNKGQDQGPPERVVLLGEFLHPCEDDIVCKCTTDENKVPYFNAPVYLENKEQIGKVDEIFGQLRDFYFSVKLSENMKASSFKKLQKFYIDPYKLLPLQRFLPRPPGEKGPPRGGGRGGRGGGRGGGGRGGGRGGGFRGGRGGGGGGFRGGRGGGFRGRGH
T1 sequence (Q9BUR4 whole entry partner): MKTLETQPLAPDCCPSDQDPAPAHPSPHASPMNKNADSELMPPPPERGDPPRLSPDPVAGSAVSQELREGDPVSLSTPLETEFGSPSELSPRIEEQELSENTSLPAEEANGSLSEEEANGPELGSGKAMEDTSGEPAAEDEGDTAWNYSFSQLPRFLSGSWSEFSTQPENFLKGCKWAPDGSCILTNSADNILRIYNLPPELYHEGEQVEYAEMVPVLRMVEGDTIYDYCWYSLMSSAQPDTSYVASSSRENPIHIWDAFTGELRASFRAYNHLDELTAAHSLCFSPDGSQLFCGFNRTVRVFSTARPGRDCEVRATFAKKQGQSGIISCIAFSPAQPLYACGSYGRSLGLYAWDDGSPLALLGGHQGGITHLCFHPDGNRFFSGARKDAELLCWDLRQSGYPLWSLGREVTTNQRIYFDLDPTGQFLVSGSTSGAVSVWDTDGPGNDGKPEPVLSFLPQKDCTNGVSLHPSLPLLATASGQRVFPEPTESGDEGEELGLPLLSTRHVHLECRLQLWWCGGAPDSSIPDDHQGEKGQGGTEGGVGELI
T2 sequence (O14746 whole entry): as the sequence (O14746 whole entry) above
T2 sequence (O60832 whole entry partner): as the sequence (O60832 whole entry partner) above
T2 sequence (Q9NX24 whole entry partner): as the sequence (Q9NX24 whole entry partner) above
T2 sequence (Q9NPE3 whole entry partner): as the sequence (Q9NPE3 whole entry partner) above
T2 sequence (Q9NY12 whole entry partner): as the sequence (Q9NY12 whole entry partner) above
T2 sequence (Q9BUR4 whole entry partner): as the sequence (Q9BUR4 whole entry partner) above
T3 sequence (O14746 whole entry): as the sequence (O14746 whole entry) above
T3 sequence (O60832 whole entry partner): as the sequence (O60832 whole entry partner) above
T3 sequence (Q9NX24 whole entry partner): as the sequence (Q9NX24 whole entry partner) above
T3 sequence (Q9NPE3 whole entry partner): as the sequence (Q9NPE3 whole entry partner) above
T3 sequence (Q9NY12 whole entry partner): as the sequence (Q9NY12 whole entry partner) above
T3 sequence (Q9BUR4 whole entry partner): as the sequence (Q9BUR4 whole entry partner) above
T4 sequence (O14746 whole entry): as the sequence (O14746 whole entry) above
T4 sequence (O60832 whole entry partner): as the sequence (O60832 whole entry partner) above
T4 sequence (Q9NX24 whole entry partner): as the sequence (Q9NX24 whole entry partner) above
T4 sequence (Q9NPE3 whole entry partner): as the sequence (Q9NPE3 whole entry partner) above
T4 sequence (Q9NY12 whole entry partner): as the sequence (Q9NY12 whole entry partner) above
T4 sequence (Q9BUR4 whole entry partner): as the sequence (Q9BUR4 whole entry partner) above

Row | IC50 (telomerase) [µM] | IC90 (telomerase) [µM] | % Telomerase Activity in Cancer Cells [2] [%] | % Telomerase Activity in Cancer Cells [3] [%] | % Telomerase Activity in Cancer Cells [4] [%] | melting point [°C] | Compound | overall survival [1] | cellular uptake [5] | pharmacokinetics [5]
1 | – | – | – | – | – | – | Imetelstat | no improvement in overall survival | – | –
2 | 1.7 ± 0.04 | 6.3 ± 0.3 | 22.1 ± 4.8 | 66.1 ± 2.4 | 28.2 ± 3.9 | – | N#C/C(=C\c1ccc(N2CCCCC2)cc1)C(=O)Nc1sc2c(c1C#N)CCC2 [Compound 29a, (2E)-2-Cyano-N-{3-cyano-4H,5H,6H-cyclopenta[b]thiophen-2-yl}-3-[4-(piperidin-1-yl)phenyl]prop-2-enamide] | – | – | –
3 | – | 5.6 ± 0.02 | – | – | – | – | C/C(=C\C(=O)Nc1ccccc1C(=O)O)c1ccc2ccccc2c1 [BIBR1532] | – | low cellular uptake | poor pharmacokinetics
4 | 23.5 ± 0.9 | 137 ± 2.6 | – | – | – | 286 to 288 | N#C/C(=C\c1cccc2c1OCO2)C(=O)Nc1sc2c(c1C#N)CCC2 [Compound 37a, (2E)-3-(2H-1,3-Benzodioxol-4-yl)-2-cyano-N-{3-cyano-4H,5H,6H-cyclopenta[b]thiophen-2-yl}prop-2-enamide] | – | – | –
5 | 6.7 ± 0.1 | 67.8 | – | – | – | 302 to 304 | N#C/C(=C\c1cccc(Cl)c1Cl)C(=O)Nc1sc2c(c1C#N)CCC2 [Compound 28a, (2E/2Z)-2-Cyano-N-{3-cyano-4H,5H,6H-cyclopenta[b]thiophen-2-yl}-3-(2,3-dichlorophenyl)prop-2-enamide] | – | – | –
6 | 6.5 ± 0.3 | 164 | – | – | – | 329 to 331 | N#C/C(=C\c1ccc(Cl)c(Cl)c1)C(=O)Nc1sc2c(c1C#N)CCC2 [Compound 27a, (2E/2Z)-2-Cyano-N-{3-cyano-4H,5H,6H-cyclopenta[b]thiophen-2-yl}-3-(3,4-dichlorophenyl)prop-2-enamide] | – | – | –
7 | 89.9 ± 3.6 | 165 | – | – | – | 257 to 259 | CN1CCN(c2ccc(/C=C(\C#N)C(=O)Nc3sc4c(c3C#N)CCCC4)cc2)CC1 [Compound 31b, (2E)-2-Cyano-N-(3-cyano-4,5,6,7-tetrahydro-1-benzothiophen-2-yl)-3-[4-(4-methylpiperazin-1-yl)phenyl]prop-2-enamide] | – | – | –
8 | 2 ± 0.03 | 7.1 ± 0.3 | 41.5 ± 6.9 | 75.6 ± 7.9 | 50.3 ± 5.1 | 284 to 286 | N#C/C(=C\c1c[nH]c2ccccc12)C(=O)Nc1sc2c(c1C#N)CCCC2 [Compound 39b, (2E)-2-Cyano-N-(3-cyano-4,5,6,7-tetrahydro-1-benzothiophen-2-yl)-3-(1H-indol-3-yl)prop-2-enamide] | – | – | –
9 | 5.9 ± 0.2 | 119 ± 4.6 | – | – | – | 246 to 248 | N#C/C(=C\c1ccc(N2CCOCC2)cc1)C(=O)Nc1sc2c(c1C#N)CCCC2 [Compound 30b, (2E)-2-Cyano-N-(3-cyano-4,5,6,7-tetrahydro-1-benzothiophen-2-yl)-3-[4-(morpholin-4-yl)phenyl]prop-2-enamide] | – | – | –
